Laboratory results published in PubChem BioAssay AID2060618 (Molecular Pharmacology Branch, DTP, NCI, 2025).

System: 454973-116-R2-J3-PDC spheroids, percent test/control viability
Assay: Anticancer human tumor 454973-116-R2-J3-PDC patient-derived pancreatic carcinoma cell line growth inhibition [CLK]
Conditions: spheroids with HUVEC and MSC; for IC50: curve of first compound; for viability, T/C: stronger effect = lower value
Outline: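 Patient-derived tumor cells grown as complex spheroids with HUVEC endothelial cells and mesenchymal stem cells, treated with drug combinations. Concentrations descend in half-log steps from near clinical Cmax, or from 10 microM if Cmax unknown.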
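Also: spheroids exposed to compounds for 7 days before readout.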

Compound `C=CC(=O)Nc1cc(Nc2nccc(-c3cn(C)c4ccccc34)n2)c(OC)cc1N(C)CCN(C)C` + CNC(=O)c1ccc(Nc2nc(OC3CCCC3)c3c(-c4ccc5nc(C)oc5c4)c[nH]c3n2)c(OC)c1 has an IC50 (second compound 0.0316 µM) greater than 300 nM, an IC50 (second compound 0.1 µM) greater than 300 nM and an IC50 (second compound 0.316 µM) of less than 0.949 nM. For the same compound, the IC50 (second compound 1 µM) was less than 0.949 nM, the IC50 (second compound 3.16 µM) was less than 0.949 nM and the IC50 (second compound 10 µM) was less than 0.949 nM. For the same compound, the viability, T/C (second compound 0.0316 µM, first compound 0.000949 µM) was 106%, the viability, T/C (second compound 0.0316 µM, first compound 0.003 µM) was 108% and the viability, T/C (second compound 0.0316 µM, first compound 0.00949 µM) was 92.5%. The viability, T/C (second compound 0.0316 µM, first compound 0.03 µM) was 107%, the viability, T/C (second compound 0.0316 µM, first compound 0.0949 µM) was 104% and the viability, T/C (second compound 0.0316 µM, first compound 0.3 µM) was 101%. For the same compound, the viability, T/C (second compound 0.1 µM, first compound 0.000949 µM) was 95.9%, the viability, T/C (second compound 0.1 µM, first compound 0.003 µM) was 106% and the viability, T/C (second compound 0.1 µM, first compound 0.00949 µM) was 90.7%. For the same compound, the viability, T/C (second compound 0.1 µM, first compound 0.03 µM) was 80.9%, the viability, T/C (second compound 0.1 µM, first compound 0.0949 µM) was 69.7% and the viability, T/C (second compound 0.1 µM, first compound 0.3 µM) was 61%. It also gave a viability, T/C (second compound 0.316 µM, first compound 0.000949 µM) of 43.8%, a viability, T/C (second compound 0.316 µM, first compound 0.003 µM) of 36.4% and a viability, T/C (second compound 0.316 µM, first compound 0.00949 µM) of 30.5%. It also gave a viability, T/C (second compound 0.316 µM, first compound 0.03 µM) of 34.8%, a viability, T/C (second compound 0.316 µM, first compound 0.0949 µM) of 36.4% and a viability, T/C (second compound 0.316 µM, first compound 0.3 µM) of 32.7%. For the same compound, the viability, T/C (second compound 1 µM, first compound 0.000949 µM) was 27.9%, the viability, T/C (second compound 1 µM, first compound 0.003 µM) was 30.9% and the viability, T/C (second compound 1 µM, first compound 0.00949 µM) was 30.5%. For the same compound, the viability, T/C (second compound 1 µM, first compound 0.03 µM) was 29.8%, the viability, T/C (second compound 1 µM, first compound 0.0949 µM) was 34.5% and the viability, T/C (second compound 1 µM, first compound 0.3 µM) was 33.9%. The viability, T/C (second compound 3.16 µM, first compound 0.000949 µM) was 29.9%, the viability, T/C (second compound 3.16 µM, first compound 0.003 µM) was 28.3% and the viability, T/C (second compound 3.16 µM, first compound 0.00949 µM) was 26.7%. The viability, T/C (second compound 3.16 µM, first compound 0.03 µM) was 27.8%, the viability, T/C (second compound 3.16 µM, first compound 0.0949 µM) was 31.1% and the viability, T/C (second compound 3.16 µM, first compound 0.3 µM) was 22.1%. For the same compound, the viability, T/C (second compound 10 µM, first compound 0.000949 µM) was 33.9%, the viability, T/C (second compound 10 µM, first compound 0.003 µM) was 24% and the viability, T/C (second compound 10 µM, first compound 0.00949 µM) was 21.9%. It also gave a viability, T/C (second compound 10 µM, first compound 0.03 µM) of 25.4%, a viability, T/C (second compound 10 µM, first compound 0.0949 µM) of 27.9% and a viability, T/C (second compound 10 µM, first compound 0.3 µM) of 20.4%.

Work on `Nc1ccccc1NC(=O)c1ccc(CNC(=O)OCc2cccnc2)cc1` + CNC(=O)c1ccc(Nc2nc(OC3CCCC3)c3c(-c4ccc5nc(C)oc5c4)c[nH]c3n2)c(OC)c1 yielded an IC50 (second compound 0.0316 µM) of 1620 nM, an IC50 (second compound 0.1 µM) of 1660 nM and an IC50 (second compound 0.316 µM) of less than 31.6 nM. For the same compound, the IC50 (second compound 1 µM) was less than 31.6 nM, the IC50 (second compound 3.16 µM) was less than 31.6 nM and the IC50 (second compound 10 µM) was less than 31.6 nM. For the same compound, the viability, T/C (second compound 0.0316 µM, first compound 0.0316 µM) was 97.2%, the viability, T/C (second compound 0.0316 µM, first compound 0.1 µM) was 102% and the viability, T/C (second compound 0.0316 µM, first compound 0.316 µM) was 87.2%. For the same compound, the viability, T/C (second compound 0.0316 µM, first compound 1 µM) was 69.4%, the viability, T/C (second compound 0.0316 µM, first compound 3.16 µM) was 25.1% and the viability, T/C (second compound 0.0316 µM, first compound 10 µM) was 5.57%. For the same compound, the viability, T/C (second compound 0.1 µM, first compound 0.0316 µM) was 107%, the viability, T/C (second compound 0.1 µM, first compound 0.1 µM) was 95.9% and the viability, T/C (second compound 0.1 µM, first compound 0.316 µM) was 91.8%. It also gave a viability, T/C (second compound 0.1 µM, first compound 1 µM) of 69%, a viability, T/C (second compound 0.1 µM, first compound 3.16 µM) of 26.8% and a viability, T/C (second compound 0.1 µM, first compound 10 µM) of 6.74%. The viability, T/C (second compound 0.316 µM, first compound 0.0316 µM) was 46.9%, the viability, T/C (second compound 0.316 µM, first compound 0.1 µM) was 40.4% and the viability, T/C (second compound 0.316 µM, first compound 0.316 µM) was 42.2%. The viability, T/C (second compound 0.316 µM, first compound 1 µM) was 31.3%, the viability, T/C (second compound 0.316 µM, first compound 3.16 µM) was 19% and the viability, T/C (second compound 0.316 µM, first compound 10 µM) was 5.37%. The viability, T/C (second compound 1 µM, first compound 0.0316 µM) was 29.1%, the viability, T/C (second compound 1 µM, first compound 0.1 µM) was 27.1% and the viability, T/C (second compound 1 µM, first compound 0.316 µM) was 23.6%. It also gave a viability, T/C (second compound 1 µM, first compound 1 µM) of 28.6%, a viability, T/C (second compound 1 µM, first compound 3.16 µM) of 16.8% and a viability, T/C (second compound 1 µM, first compound 10 µM) of 3.41%. For the same compound, the viability, T/C (second compound 3.16 µM, first compound 0.0316 µM) was 28.7%, the viability, T/C (second compound 3.16 µM, first compound 0.1 µM) was 30.1% and the viability, T/C (second compound 3.16 µM, first compound 0.316 µM) was 24.4%. For the same compound, the viability, T/C (second compound 3.16 µM, first compound 1 µM) was 27.1%, the viability, T/C (second compound 3.16 µM, first compound 3.16 µM) was 17.2% and the viability, T/C (second compound 3.16 µM, first compound 10 µM) was 2.74%. The viability, T/C (second compound 10 µM, first compound 0.0316 µM) was 26.9%, the viability, T/C (second compound 10 µM, first compound 0.1 µM) was 24.5% and the viability, T/C (second compound 10 µM, first compound 0.316 µM) was 21.1%. It also gave a viability, T/C (second compound 10 µM, first compound 1 µM) of 21.8%, a viability, T/C (second compound 10 µM, first compound 3.16 µM) of 16.8% and a viability, T/C (second compound 10 µM, first compound 10 µM) of 2.21%.
